Test results reported in PMC8632718, “Novel Assay Platform to Evaluate Intracellular Killing of Mycobacterium tuberculosis: In Vitro and In Vivo Validation” (Frontiers in Immunology, 2021).
Ends that are not written are not given here.

How the values were obtained:
[1] = Analytical RP-HPLC retention time (correlates with overall hydrophobicity); format: physicochemical; parameters: Rt (retention time): unit not given here; details: for Rt (retention time): chromatographic measure of hydrophobicity, Waters Acquity UPLC BEH C18 (1.7 µm, 150 × 2.1 mm), flow rate 0.3 ml/min, gradient 2% B 1 min, 2%–100% B 16 min, single peak or first of two 5(6)-Cf isomer peaks; for Rt (retention time), second peak: same column and gradient, second peak due to 5(6)-Cf isomers
Experimental: Purified peptides were analyzed by LC-MS using a Thermo Scientific Q Exactive Focus Hybrid Quadrupole-Orbitrap Mass Spectrometer. For the separation, a Waters Acquity UPLC BEH C18 (1.7 µm, 150 × 2.1 mm) column was used with a flow rate of 0.3 ml/min.
For INH conjugation, representative cell-penetrating (CPP) and antimicrobial peptides (AMP) were chosen. These cationic, amphiphilic peptides are favored in the transportation of various cargos due to their high internalization rate. The used peptide series contains well-known CPPs such as penetratin, transportan, and Tat, frequently studied AMPs such as magainin and buforin, and designed analogs such as Dhvar4, Crot(1-9,38-42), and CM15. Also, a receptor-binding tuftsin analog (OT20), which was reported as a macrophage-targeting peptide, was also applied. […] Mass spectra and RP-HPLC chromatograms are available at https://figshare.com/s/48a023a25068f7658adf, DOI: 10.6084/m9.figshare.16644901. […] To study the internalization rate and intracellular localization, fluorescently labeled analogs were also synthesized. Note that the retention time of Cf-peptide are somewhat higher than unlabeled analogs, and in some cases, two peaks were detected due to the isomeric distribution of 5(6)-Cf molecule.

[2] = format: in vitro ADME; details: rat liver lysosomal homogenate, 37 °C, LC-MS
Experimental: Next, we examined the enzymatic stability of two peptide conjugates in rat liver lysosomal homogenate (see Supplementary Information 2 for the method description). Peptides were dissolved at 0.025 µg/µl concentration then allowed to react with the lysosomal homogenate. Degradation of the conjugates was fast. […]
1.2 Lysosomal degradation studies
Enzymatic stability of INH-Dhvar4 and INH-Penetratin conjugates were assayed in rat liver lysosomal homogenate (protein content was 16.6 µg/µl). Peptides were dissolved in 0.2 M Sodium acetate buffer (pH=5.03) at 0.025 µg/µl concentration and added to the lysosomal homogenate to reach 1 : 1 protein / peptide ratio (37 °C, 600 rpm vortex) . At different time points (5 min, 30 min, 1 h, 6 h, 24 h) the reaction was stopped by the addition of 5 µl formic acid. Sampled were then measured by LC-MS using a Thermo Scientific Q Exactive Focus Hybrid Quadrupole -Orbitrap Mass Spectrometer (Suppl. Figu re 1). For chromatography, a Wa ters Acquity UPLC BEH C18 (1.7 µ, 150 × 2.1 mm) column was used with a flow rate of 300 µL/min applying a gradient elution from 2% to […]
(1 picture or pasted object on this page, not shown here)

[3] = system: CALU-1 monolayer / EBC-1 cells; format: in vitro ADME, human; details: Transwell, 0.4 µm polycarbonate, Cf-peptide apical 10 and 20 µM, 45 min, apical to basolateral; EBC-1 fluorescence read-out
Experimental: EBC-1 lung squamous carcinoma and CALU-1 human lung epidermoid carcinoma were seeded on 24-well plates with Transwell inserts (TW) [Nunc, Sigma polycarbonate microporous membrane, 0.4 µm pore size (growth area 0.412 cm^2)]. Before use, TW inserts were incubated with ICM. On day 1, 300 μl of CALU-1 suspension in complete DMEM medium (8.0 × 10^5 cells) was pipetted onto the surface of the TW apical chamber and 500 μl complete DMEM medium was added to the basolateral side. In order to avoid nonattached cells, after incubation at 37°C for 5–6 h, the apical medium was removed and replaced with fresh complete DMEM medium. […] On day 5, the medium was changed, then Cf-peptide was added to the CALU-1-containing apical side at 10 and 20 µM concentrations, and the system was incubated for 45 min or 3 h (37°C, 5% CO2). The TW chamber was removed after incubation. EBC-1 cells were studied using flow cytometry (BD LSR II).
EBC-1 cells were treated without the presence of the TW inserts as controls (on day 4 prior to treatment, EBC-1 cells (10^5 cells/well in complete DMEM). […]
Figure 7 The penetration ability of Cf-peptides was determined on Transwell bronchial interface, and the penetration rates were quantified by flow cytometry. […] The confluence of CALU-1 monolayer was monitored with CellTracker Green, and after development of stable green fluorescence, cells were imaged in situ. […]

[4] = system: MonoMac-6 cells; format: cell-based, human; details: 10 µM Cf-peptide, 2 h, LysoTracker, ImageJ JACoP on merged images
Experimental: Cellular uptake and localization were visualized by confocal laser scanning microscopy. MonoMac-6 cells were seeded 1 day prior to treatment into coverslips (thickness 1, Assistent, Karl Hecht GmbH, Sondheim vor der Rhön, Germany) containing a 24-well plate (Sarstedt, Nümbrecht, Germany) for microscopy studies at a density of 7.5 × 10^4 cells/well, in 1 ml complete DMEM medium. The following day, cells were treated with Cf-peptide at a concentration of 10 µM (diluted in serum-free DMEM medium) for 2 h. Lysosomes were stained by LysoTracker Deep Red (Invitrogen, Waltham, MA, USA) for 30 min, and nuclei were stained by Hoechst 33342 solution (Thermo Scientific, USA). After each step, cells were washed three times with serum-free medium, then cells were fixed by 4% paraformaldehyde for 15 min and mounted to microscopy slides with Mowiol 4-88 (Sigma, Budapest, Hungary). Imaging was performed by a Zeiss LSM-710 system (Carl Zeiss microscopy GmbH, Oberkochen, Germany) with a ×40/1.4 Plan-Apochromat oil immersion objective using lasers with the parameters: Cf peptides λex = 488 nm, λem = 541 nm, nuclei λex = 405 nm, λem = 467 nm (Hoechst 33342), lysosomes λex = 633 nm, λem = 720 nm (LysoTrackerTM Deep Red) or λex = 577 nm, λem = 590 nm (LysoTrackerTM Red DND-99) were used. Zeiss ZEN lite software (Carl Zeiss Microscopy GmbH, Jena, Germany) was used for image processing.
Parallel with flow cytometry measurements, confocal laser scanning microscopy images were also captured in order to assess qualitative information on intracellular localization. LysoTrackerTM Deep Red was used for lysosome and Hoechst 33342 for nuclear staining to distinguish subcellular localization of the Cf-peptide. […] Colocalization of Cf-peptide and LysoTracker may be subjectively identified by the cooccurrence, the simple spatial overlap which combined the contribution of both signals (green and red) when the images of each signal are superimposed (merged, see Supplementary Figure S3 ).
microscopy at the 10 µM Cf-peptide concentration (based on flow cytometry profile), and MonoMac6 cells were incubated for 2 hrs.
the visible differences among localization profiles of the Cf-peptides, we applied greyscale analysis of
the images and the evaluation was carried out on a representative peptide set.
were studied and the treatment, the staining and fixation process were carefully optimized to assess
Laser intensity values were identical in case of all Cf-peptides. ZEN 3.0 blue lite software
was used for image processing and grey scale values were extracted using NIH ImageJ software’s Plot

| Compound | Rt (retention time) [1] | also measured |
| --- | --- | --- |
| Cf-RAGLQFPVGRVHRLLRK [Cf-Buforin, 5(6)-carboxyfluorescein-labeled buforin] | 7.7 | Rt (retention time), second peak [1]: 7.8 |
| KWKLFKKIGAVLKVL-NH2 [CM15, reference compound] | 8.4 |  |
| Cf-TKPKGTKPKGTKPKGTKPKG [Cf-OT20, 5(6)-carboxyfluorescein-labeled OT20] | 4.9 | Rt (retention time), second peak [1]: 5.0 |
| CC[C@H](C)[C@H](NC(=O)[C@H](CCCCN)NC(=O)[C@@H](NC(=O)[C@H](CCC(N)=O)NC(=O)[C@H](CCCNC(=N)N)NC(=O)CNNC(=O)c1ccncc1)[C@@H](C)CC)C(=O)N[C@@H](Cc1c[nH]c2ccccc12)C(=O)N[C@@H](Cc1ccccc1)C(=O)N[C@@H](CCC(N)=O)C(=O)N[C@@H](CC(N)=O)C(=O)N[C@@H](CCCNC(=N)N)C(=O)N[C@@H](CCCNC(=N)N)C(=O)N[C@@H](CCSC)C(=O)N[C@@H](CCCCN)C(=O)N[C@@H](Cc1c[nH]c2ccccc12)C(=O)N[C@@H](CCCCN)C(=O)N[C@@H](CCCCN)C(N)=O [INH-Penetratin] |  | peaks of the intact conjugates after 30 min of incubation ([2]; 0.2 M sodium acetate buffer pH 5.03, 0.025 µg/µl, 1:1 protein/peptide ratio): almost disappeared; most stable fragment (main peak after 24 h of incubation) ([2]; pH 5.03, 0.025 µg/µl): tetrapeptide (RQIK) with INH |
| Cf-YGRKKRRQRRR [Cf-Tat, 5(6)-carboxyfluorescein-labeled Tat] | 4.6 | Rt (retention time), second peak [1]: 5.0 |
| N=C(N)NCCC[C@H](NC(=O)[C@H](CCCNC(=N)N)NC(=O)[C@H](CCCNC(=N)N)NC(=O)[C@H](CCC(N)=O)NC(=O)[C@H](CCCNC(=N)N)NC(=O)[C@H](CCCNC(=N)N)NC(=O)[C@H](CCCCN)NC(=O)[C@H](CCCCN)NC(=O)[C@H](CCCNC(=N)N)NC(=O)CNC(=O)[C@@H](N)Cc1ccc(O)cc1)C(N)=O [Tat, reference compound] | 0.9 |  |
| CC[C@H](C)[C@H](NC(=O)[C@H](CCCCN)NC(=O)[C@@H](NC(=O)[C@H](CCC(N)=O)NC(=O)[C@@H](N)CCCNC(=N)N)[C@@H](C)CC)C(=O)N[C@@H](Cc1c[nH]c2ccccc12)C(=O)N[C@@H](Cc1ccccc1)C(=O)N[C@@H](CCC(N)=O)C(=O)N[C@@H](CC(N)=O)C(=O)N[C@@H](CCCNC(=N)N)C(=O)N[C@@H](CCCNC(=N)N)C(=O)N[C@@H](CCSC)C(=O)N[C@@H](CCCCN)C(=O)N[C@@H](Cc1c[nH]c2ccccc12)C(=O)N[C@@H](CCCCN)C(=O)N[C@@H](CCCCN)C(N)=O [Penetratin, reference compound] | 6.1 | penetration through CALU-1 monolayer and internalization into EBC-1 cells [3]: higher internalization rates |
| Cf-GIGAVLKVLTTGLPALISWIKRKRQQ [Cf-Melittin, 5(6)-carboxyfluorescein-labeled melittin] | 12.2 |  |
| YKQCHKKGGKKGSG-NH2 [Crot(1-9,38-42), reference compound] | 0.8 |  |
| CC[C@H](C)[C@H](NC(=O)CN)C(=O)NCC(=O)N[C@@H](C)C(=O)N[C@H](C(=O)N[C@@H](CC(C)C)C(=O)N[C@@H](CCCCN)C(=O)N[C@H](C(=O)N[C@@H](CC(C)C)C(=O)N[C@H](C(=O)N[C@H](C(=O)NCC(=O)N[C@@H](CC(C)C)C(=O)N1CCC[C@H]1C(=O)N[C@@H](C)C(=O)N[C@@H](CC(C)C)C(=O)N[C@H](C(=O)N[C@@H](CO)C(=O)N[C@@H](Cc1c[nH]c2ccccc12)C(=O)N[C@H](C(=O)N[C@@H](CCCCN)C(=O)N[C@@H](CCCNC(=N)N)C(=O)N[C@@H](CCCCN)C(=O)N[C@@H](CCCNC(=N)N)C(=O)N[C@@H](CCC(N)=O)C(=O)N[C@@H](CCC(N)=O)C(N)=O)[C@@H](C)CC)[C@@H](C)CC)[C@@H](C)O)[C@@H](C)O)C(C)C)C(C)C [Melittin, reference compound] | 10.6 |  |
| CC[C@H](C)[C@H](NC(=O)[C@H](CCCCN)NC(=O)[C@H](CCCCN)NC(=O)[C@H](C)NC(=O)[C@H](CC(C)C)NC(=O)[C@H](C)NC(=O)[C@H](C)NC(=O)[C@H](CC(C)C)NC(=O)[C@H](C)NC(=O)[C@H](CCCCN)NC(=O)[C@H](CC(C)C)NC(=O)[C@H](CC(N)=O)NC(=O)[C@@H](NC(=O)[C@H](CCCCN)NC(=O)CNC(=O)[C@H](CC(C)C)NC(=O)[C@H](CC(C)C)NC(=O)[C@H](Cc1ccc(O)cc1)NC(=O)CNC(=O)[C@H](C)N)[C@@H](C)CC)C(=O)N[C@@H](CC(C)C)C(N)=O [reference compound] | 10.6 |  |
| Cf-AGYLLGKINLKALAALAKKIL [Cf-Penetratin, 5(6)-carboxyfluorescein-labeled penetratin] |  | Pearson's coefficient of colocalization with lysosomal staining [4]: 0.490 |
| Cf-GIGKFLHSAKKFGKAFVGEIMNS [Cf-Transportan, 5(6)-carboxyfluorescein-labeled transportan] |  | Pearson's coefficient of colocalization with lysosomal staining [4]: 0.823 |
| Cf-KWKLFKKIGAVLKVL [Cf-CM15, 5(6)-carboxyfluorescein-labeled CM15] | 9.6 | Pearson's coefficient of colocalization with lysosomal staining [4]: 0.358; Rt (retention time), second peak [1]: 9.7 |
| Cf-YKQCHKKGGKKGSG [Cf-Crot(1-9,38-42), 5(6)-carboxyfluorescein-labeled Crot(1-9,38-42)] | 5.5 | Rt (retention time), second peak [1]: 5.8 |
| GIGKFLHSAKKFGKAFVGEIMNS-NH2 [Magainin, reference compound] | 8.2 |  |
| TKPKGTKPKGTKPKGTKPKG-NH2 [OT20, reference compound] | 1.6 |  |
| RAGLQFPVGRVHRLLRK-NH2 [Buforin, reference compound] | 6.6 |  |
